# Experimental data as given in patent US10464890B2, “PGAM1 inhibitors and methods related thereto” (Emory University, priority 2011, dated 2019).
# Assays:
# [1] = test system: H1299 cells; assay: Oxidative PPP flux assay using 14CO2 release; assay type: cell-based, human
# Experimental: Cells were seeded on 6-cm dishes that are placed in a 10-cm dish with 2 sealed pinholes on the top. ^14CO2 released from cells was collected by completely sealing the 10-cm dish, in which the cells on the 6-cm dish were incubated in 2 ml of medium containing [1-^14C]- or [6-^14C]-glucose, respectively, at a final specific activity of 10 μCi/ml glucose at 37° C. for 3 h. The oxidative PPP flux was stopped by injecting 0.3 ml of 50% TCA through one of the holes on the top, and at the same time ^14CO2 released was trapped by injecting 0.3 ml of Hyamine Hydroxide into a small cup placed on the 10-cm dish through the second hole. Krebs cycle measurements, obtained in parallel samples incubated with [6-^14C]-glucose, were used to correct the oxidative PPP flux measurements obtained from samples incubated with [1-^14C]-glucose. Each dish was completely re-sealed with parafilm and incubated overnight at room temperature. Hyamine Hydroxide in the small cup was dissolved into 60% methanol and directly subjected to scintillation counting.
# [2] = test system: human primary leukemia cells; assay: Primary leukemia cells from human patients; assay type: cell-based
# Description: Approval of use of human specimens was given by the Institutional Review Board of Emory University School of Medicine. All clinical samples were obtained with informed consent with approval by the Emory University Institutional Review Board. Clinical information for the patients was obtained from the pathological files at Emory University Hospital under the guidelines and with approval from the Institutional Review Board of Emory University School of Medicine and according to the Health Insurance Portability and Accountability Act. Only samples from patients that were not previously treated with chemotherapy or radiation therapy were used. Mononuclear cells (MNCs) were isolated from peripheral blood and bone marrow samples from human leukemia patients or peripheral blood samples from healthy donors using lymphocyte separation medium (Cellgro).
# Only samples from patients that were not previously treated with chemotherapy or radiation therapy were used. Mononuclear cells (MNCs) were isolated from peripheral blood and bone marrow samples from human leukemia patients or peripheral blood samples from healthy donors using lymphocyte separation medium (Cellgro).
# [3] = test system: H1299 cells; assay: Cell proliferation assay, H1299; assay type: cell-based, human
# Experimental: For leukemia cell proliferation assay, 10×10^4 cells were seeded in non-tissue culture coated 6-well plate and incubated at 37° C. for indicated times. Cell numbers were counted by trypan blue exclusion under a microscope (×40) at indicated times and the percentage of cell proliferation was determined by comparing PGAM1 knockdown cells to pLKO.1 vector expressing cells. […] Cell viability was determined by counting drug-treated cells compared to DMSO-treated control cells with trypan blue exclusion under a microscope (×40) and by using CellTiter96Aqueous One solution proliferation kit (Promega). For adherent cell proliferation assay such as H1299 and MDA-MB231 cells, 5×10^4 cells were seeded in 6-well plate 24 h before the assay starts and were cultured at 37° C. 24 h after seeding, cells were treated with 5 μM Methyl-2PG and incubated at 37° C. for indicated times. Cell proliferation was determined by the increase in cell number indicated times after the treatment starts compared to that at the treatment starts for each cell line (T=0). Cell numbers were counted by trypan blue exclusion under a microscope (×40). For adherent cell viability assay with trypan blue exclusion, 5×10^4 cells were seeded in 6-well plate 24 h before the assay starts and were cultured at 37° C. […] Cell viability was determined by counting drug-treated cells compared to DMSO-treated control cells with trypan blue exclusion under a microscope (×40). For MTT cell viability assay of adherent cells, 5×10^3 cells were seeded in 96-well plate 24 h before the assay starts and were cultured at 37° C. […] Cell viability was determined by using CellTiter96Aqueous One solution proliferation kit (Promega).
# [4] = test system: H1299 cells; assay: Lactate production assay; assay type: cell-based, human
# Experimental: (§1) Cellular lactate production was measured under normoxia with a fluorescence-based lactate assay kit (MBL). Phenol red-free RPMI medium without FBS was added to a 6 well-plate of subconfluent cells, and was incubated for 1 h at 37° C. After incubation, 1 ml of media from each well was assessed using the lactate assay kit. Cell numbers were counted by a microscope (×40). Oxygen consumption rates were measured with a Clark type electrode equipped with 782 oxygen meter (Strathkelvin Instruments). 1×10^7 cells were resuspended in RPMI 1640 medium with 10% FBS and placed into a water-jacked chamber RC300 (Strathkelvin Instruments) and recording was started immediately. Intracellular ATP concentration was measured by an ATP bioluminescent somatic cell assay kit (Sigma). 1×10^6 cells were trypsinized and resuspended in ultrapure water. Luminescence was measured with spectrofluorometer (SPECTRA Max Gemini; […]) immediately after the addition of ATP enzyme mix to cell suspension.
# [5] = test system: H1299 cells; assay: 14C-lipid synthesis and 14C-RNA synthesis assays; assay type: cell-based, human
# Experimental: ^14C-lipids synthesized from ^14C-glucose were measured. […] Wells were washed with an additional 500 μL of hexane:isopropanol solution, and extracts were combined and air dried with heat. Extracted lipids were resuspended in 50 μL of chloroform, and subjected to scintillation counting. Scintillation counts were normalized with cell numbers counted by a microscope (×40). ^14C-RNA synthesized from ^14C-glucose was measured. […] RNA was then extracted using RNeasy columns (Qiagen) and ^14C-RNA was assayed by scintillation counter. ^14C counts for each sample were normalized by the amount of RNA.
# [6] = test system: H1299 cells; assay: Intracellular ATP assay; assay type: cell-based, human
# Experimental: as §1
# [7] = H1299 cells treated with PGMI-004A
# [8] = primary leukemia cells from a representative AML patient
# [9] = samples from 7 out of 8 leukemia patients
# [10] = H1299 PGAM1 knockdown cells, methyl-2-PG
# [11] = H1299 cells with stable knockdown of PGAM1, methyl-2-PG
Compound,"oxidative PPP flux [1, 7]","2-PG levels [2, 8]","3-PG levels [2, 8]","PGAM1 activity [2, 9]","cell viability [2, 9]","lactate production [2, 9]",cell proliferation ([3]; H1299 cells),"lactate production [4, 7]","biosynthesis of RNA [5, 7]","biosynthesis of lipids [5, 7]","intracellular ATP levels [6, 7]","oxidative PPP flux [1, 10]","cell viability in PGMI-004A-treated primary leukemia cells ([2]; representative AML patients, methyl-2-PG added to PGMI-004A)","cell proliferation [3, 10]","lactate production [4, 11]","biosynthesis of RNA and lipids [5, 10]","intracellular ATP levels [6, 11]"
"O=C1c2ccccc2C(=O)c2c1cc(S(=O)(=O)Nc1ccc(C(F)(F)F)cc1)c(O)c2O [PGMI-004A, N-(4-trifluoromethyl)-penyl-3,4-dihydroxy-9,10-dioxo-2-anthracenesulfonamide]",decreased oxidative PPP flux,decreased,increased,reduced PGAM1 activity,decreased cell viability,reduced,reduced,significantly reduced lactate production,reduced,reduced,no significant effect on intracellular ATP levels,,,,,,
"COC(=O)[C@@H](CO)OP(=O)(O)O [methyl-2-PG, methyl ester of D(+)-2-phosphoglyceric acid, reference compound]",,,,,,,,,,,,rescues the decreased oxidative PPP flux,rescues the decreased cell viability,partially restores the reduced cell proliferation,rescues the reduced lactate production,rescues,no significant effect on intracellular ATP levels
